Test results as given in PMC9524151, “Peptides derived from hookworm anti-inflammatory proteins suppress inducible colitis in mice and inflammatory cytokine production by human cells” (Frontiers in Medicine, 2022).
Ends that are not written are not given here.

Legend:
TNBS-induced colitis = assay: TNBS colitis model, oral administration; details: oral 5 mg/kg; compared with vehicle treated mice
in vitro = details: male, human, human serum
[1] = 100% human serum, 37°C, RP-HPLC at 214 nm, triplicate; for relative rate of degradation in human serum over 24 h: 0, 3, 8, 24 h

Molecule	remaining at 4 h, 20 μM (in vitro)	relative rate of degradation in human serum over 24 h [1]	other results
O=C(O)c1cc(/N=N/c2ccc(S(=O)(=O)Nc3ccccn3)cc2)ccc1O [sulfasalazine]			colon length after oral administration (TNBS-induced colitis): Neither ES2-10 nor sulfasalazine were distinct from the vehicle treated mice
PSKEKADLGKYKA [AIP1-13]	< 10%		
SQKEKDLLKE [ES2-10]	< 10%		
TPEEHDLLMDLMGDPKKAEE [AIP2-20]		degraded slower than AIP1-13 and ES2-10	detection of peptide in human serum after 24 h [1]: could still be detected after 24 h; remaining at 8 h, 20 μM (in vitro): > 50%
TPEEHPLLMDLMGDPKKAEE [AIP2-20D6P]		degraded slower than AIP1-13 and ES2-10 but was less stable than AIP2-20	
